One experiment is filed under the species Homo sapiens. Briefly: Effect of COTC on GSH level in human pancreatic adenocarcinoma cell was determined at 30 ug/mL of COTC. The format is functional.
In another experiment the target is Lactoylglutathione lyase (Homo sapiens, UniProt Q04760). Briefly: Inhibitory constant against Glyoxalase I.

Each structure is given as a SMILES string.

In general, Ki refers to the equilibrium dissociation constant of an inhibitor or competing ligand from its target. The low end stands for a stronger hold on the target, the high end for a looser hold on the target.

Chain of Lactoylglutathione lyase (Q04760 whole entry): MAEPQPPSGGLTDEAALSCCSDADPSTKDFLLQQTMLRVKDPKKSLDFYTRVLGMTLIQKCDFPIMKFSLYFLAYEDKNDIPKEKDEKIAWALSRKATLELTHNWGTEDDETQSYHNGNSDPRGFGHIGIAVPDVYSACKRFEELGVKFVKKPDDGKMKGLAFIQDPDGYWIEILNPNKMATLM

In the case of `C/C=C/C(=O)OCC1=C[C@@H](O)[C@@H](O)[C@@H](O)C1=O`, in the experiment listed under Homo sapiens, the Decrease is reported as 40%.

On Lactoylglutathione lyase, `NC(CCC(=O)NC(CSCC1=C[C@@H](O)[C@@H](O)[C@@H](O)C1=O)C(=O)NCC(=O)O)C(=O)O` (some centres not stated) yielded a Ki of 183 µM.

These data come from ChEMBL document CHEMBL1144323, “Reversal of anticancer drug resistance by COTC based on intracellular glutathione and glyoxalase I” (Bioorg Med Chem Lett, 2005).
